These results are taken from patent publication US7276576B1, “Mammalian ICYP (iodocyanopindolol) receptor and its applications” (Dainippon Sumitomo Pharma Co., Ltd., priority 1996, dated 2007).

Bounds are passed on as bounds.

In this experiment the target is T1, [125I]-ICYP specific binding site (SMBP, SM-11044 binding protein) in rat colon smooth muscle membranes (Rattus norvegicus, UniProt A0A8I6A822).
T1 construct: Membranes from colon smooth muscles were prepared as essentially described by Ek et al., 1986; from tissue
The experiment can be described thus: [125I]-ICYP saturation and competition binding to rat colon membranes (Example 2). The note with it: for Pseudo-Hill coefficient / Ki: 1 nM [125I]-ICYP, 10 μM 5-HT, 10 μM phentolamine and 20 μM propranolol; for Ki: read-out: Ki on [125I]-ICYP specific binding to rat colon membranes; for Displacement of [125I]-ICYP specific binding (in words): competition binding, no concentration stated; for Displacement of [125I]-ICYP specific binding: up to the concentration of 1 mM; for Inhibition of [125I]-ICYP specific binding: n=2. On the procedure: Incubations were carried out at 37° C. for 30 min in a shaking water-bath incubator and terminated by addition of 4 ml of ice-cold Tris-saline followed by rapid filtration under vacuum on Whatman GF/B filter presoaked in Tris-saline containing 0.1% polyethyleneimine (pH 7.4). The filters were washed three times with 4 ml of ice-cold Tris-saline, transferred to plastic tubes and counted in a γ-counter.
Hill coefficient was calculated by linear regression using saturation experiment data. Pseudo-Hill coefficient and IC50 were determined by the computer program, InPlot™ (GraphPad Software, CA, USA).
A general note: Loss of bound radioactivity is the signal in a displacement assay; it reports binding, not function.

T1 sequence (A0A8I6A822 27-587): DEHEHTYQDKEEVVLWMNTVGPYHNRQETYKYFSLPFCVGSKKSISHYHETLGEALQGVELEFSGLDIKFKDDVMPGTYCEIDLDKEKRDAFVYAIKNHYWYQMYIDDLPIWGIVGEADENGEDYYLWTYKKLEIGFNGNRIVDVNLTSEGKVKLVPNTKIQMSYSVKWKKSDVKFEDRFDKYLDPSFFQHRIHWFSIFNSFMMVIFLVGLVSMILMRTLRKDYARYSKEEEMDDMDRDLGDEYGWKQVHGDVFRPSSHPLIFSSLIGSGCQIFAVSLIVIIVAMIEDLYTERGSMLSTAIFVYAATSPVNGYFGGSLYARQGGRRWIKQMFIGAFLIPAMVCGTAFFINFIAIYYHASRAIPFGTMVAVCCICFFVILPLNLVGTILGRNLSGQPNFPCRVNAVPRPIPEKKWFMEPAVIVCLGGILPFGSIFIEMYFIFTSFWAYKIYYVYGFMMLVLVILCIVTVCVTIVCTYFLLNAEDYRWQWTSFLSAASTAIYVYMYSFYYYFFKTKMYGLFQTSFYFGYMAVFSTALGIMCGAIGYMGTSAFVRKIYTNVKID

With `Cc1ccc(Cl)c(OCC(O)CNC(C)(C)C)c1` (racemic) [(±)-bupranolol, bupranolol], the Pseudo-Hill coefficient is recorded as 1.08 ± 0.08 and the inhibitory constant (Ki) was found to be 11.3 ± 0.8 µM.
As to `CC(C)NCC(O)COc1cccc2[nH]c3ccccc3c12` (racemic) [(±)-carazolol, carazolol], the Pseudo-Hill coefficient was found to be 0.77 ± 0.11, the Ki was determined as 8.1 ± 1.7 µM and the “Displacement of [125I]-ICYP specific binding (in words)” value is recorded as “less effective”.
On to `COC(=O)COc1ccc(OCCNCC(O)COc2ccccc2)cc1` (racemic) [ICI-198157, (RS)-4-[2-[(2-hydroxy-3-phenoxypropyl)amino]ethoxy]phenoxyacetic acid methyl ester], for which the Pseudo-Hill coefficient stood at 0.96 ± 0.23, the Ki is 29.4 ± 8.9 µM and the “Displacement of [125I]-ICYP specific binding (in words)” value was “displaced the specific binding”.
With `O=C([C@@H](NCCCc1ccc(F)cc1)[C@@H](O)c1ccc(O)c(O)c1)N1CCCC1` (racemic) [SM-14010], the Pseudo-Hill coefficient worked out at 0.67 ± 0.13 and the Ki worked out at 29.3 µM.
As to `O=C([C@@H](NCCCc1ccc(F)cc1)[C@H](O)c1ccc(O)c(O)c1)N1CCCC1` (racemic) [SM-14011], the Pseudo-Hill coefficient was found to be 1.07 ± 0.15 and the Ki is 2 µM. The “Effectiveness in competition binding relative to SM-14010” value (ratio of Ki, SM-14011 vs SM-14010) turned out to be 15 times.
As to `CCOC(=O)COc1ccc2c(c1)C[C@@H](NC[C@H](O)c1cccc(Cl)c1)CC2` (racemic) [SR-58611A, (RS)-N-(7 carbethoxymethoxyl-1,2,3,4-tetrahydronaphth-2-yl)-2-hydroxy-2-(3 chlorophenyl) ethanamine hydro-chloride], the Pseudo-Hill coefficient is 1.21 ± 0.21 and the Ki turned out to be 5.9 ± 1 µM.
With `NCCc1c[nH]c2ccc(O)cc12` [5-HT, serotonine], the Ki was greater than 1000 µM and the “Displacement of [125I]-ICYP specific binding” value was “not displaced”.
For the compound `CC(C)(C)NCC(O)COc1cccc2[nH]c(=O)[nH]c12` (stereo not shown) [CGP-12177A], the Ki was greater than 100 µM.
In the case of `NCCc1ccc(O)c(O)c1` [Dopamine, dopamine], the Ki is greater than 1000 µM and the “Displacement of [125I]-ICYP specific binding” value is “not displaced”.
As for `Nc1nc2c(ncn2[C@@H]2O[C@H](COP(=O)(O)OP(=O)(O)OP(=O)(O)O)[C@@H](O)[C@H]2O)c(=O)[nH]1` [GTP], the “Inhibition of [125I]-ICYP specific binding” value was 29.8±2.7% (at 300 μM) and 98.2 ± 1.3% (at 1 mM).
Regarding `Cc1ccc(OCC(O)C(C)NC(C)C)c2c1CCC2` (stereo not shown) [ICI-118551], the Pseudo-Hill coefficient came to 0.89 ± 0.14 and the Ki is 28.5 µM.
With `O=C(O)COc1ccc(OCCNCC(O)COc2ccccc2)cc1` (stereo not shown) [ICI-201651], the Ki is greater than 100 µM.
`O=C(O)COc1ccc(OCCNC[C@H](O)COc2ccccc2)cc1` [ICI-215001]: the Ki was greater than 100 µM.
As to `O=C([C@H](NCCCc1ccc(F)cc1)[C@@H](O)c1ccc(O)c(O)c1)N1CCCC1` [SM-14786], the Pseudo-Hill coefficient stood at 0.92 ± 0.15 and the Ki turned out to be 3.7 ± 0.4 µM.

One may read the Ki as a measure of affinity in units of concentration, obtained from inhibition or displacement.
